Experimental data reported in US20250250269A1, “HETEROCYCLIC GLP-1 AGONISTS” (Gasherbrum Bio, Inc., priority 2022, published 2025).

Target: T1, GLP-1 Receptor (Homo sapiens, UniProt P43220)
T1 construct: host or cells: HEK293/CRE-Luc (HEK293/GLP1R/CRE-LUC)
Assay: GLP-1R agonist cAMP stimulation assay (HEK293/GLP1R/CRE-LUC cells, Cisbio cAMP dynamic 2 kit)
Type: cell-based
Settings: HEK293/CRE-Luc cells stably expressing the GLP-1 Receptor, 30 min at 37° C.
Method: Activation of GLP-1 receptor is known to stimulate cyclic AMP (cAMP) production in cells which indicates primary coupling to the Gas subunit of the G protein heterotrimeric complex.
To optimize functional activity directed toward Gas coupling, a HEK293/CRE-Luc cell line developed by HDB stably expressing the GLP-1 Receptor was used. 200× concentration of compound working solutions were prepared (Agilent Technologies Bravo) with ½ log serial dilution in 384-well Echo LDV plate (Labcyte, Cat #LP-0200). […] 200× concentration of compound working solutions were moved to 384-well white low volume plate (Greiner, Cat #784075) using Labcyte ECHO550. 1×10^5 cells/mL HEK293/GLP1R/CRE-LUC (HD Biosciences) cell suspensions prepared with assay buffer [DPBS containing 0.5 mM IBMX (Sigma, Cat #15879) and 0.1% BSA (GENVIEW, Cat #FA016-100g)], 10 μL cell suspensions were added to each well of previous generated assay plate which already contains […] compound at 200×concentration using ThermoFisher Multidrop Combi (1000 cells/well). Seal the plate and incubate at 37° C. with 5% CO2 for 30 min.
After incubation the cAMP assay signal was generated using cAMP dynamic 2 Kit (Cisbio). 5 μL cAMP-d2 working solution was added to each well, followed with 5 μL Anti-cAMP antibody-cryptate working solution added to each well using ThermoFisher Multidrop Combi. Incubate at room temperature for 1 hour protected from light. Read the fluorescence at 665 and 615 nm with Reader PerkinElmer EnVision.

T1 sequence (P43220 24-463, species assumed): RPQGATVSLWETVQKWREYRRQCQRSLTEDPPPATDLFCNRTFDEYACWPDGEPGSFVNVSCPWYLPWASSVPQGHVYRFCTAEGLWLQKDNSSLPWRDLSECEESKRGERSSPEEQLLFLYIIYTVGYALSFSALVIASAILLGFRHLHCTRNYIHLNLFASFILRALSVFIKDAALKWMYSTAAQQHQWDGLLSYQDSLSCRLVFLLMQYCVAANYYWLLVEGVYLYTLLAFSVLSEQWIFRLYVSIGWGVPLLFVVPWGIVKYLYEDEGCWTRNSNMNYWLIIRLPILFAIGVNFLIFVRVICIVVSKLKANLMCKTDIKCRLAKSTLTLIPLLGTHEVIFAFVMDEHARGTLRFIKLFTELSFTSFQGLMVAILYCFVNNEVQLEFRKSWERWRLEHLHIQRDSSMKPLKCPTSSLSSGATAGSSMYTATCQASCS

| Compound | EC50 [nM] |
| --- | --- |
| Cc1ccc(C2(C)Oc3cccc(C4CCN(Cc5nc6cc(-c7nnc(C(F)(F)F)[nH]7)ncc6n5C[C@@H]5CCO5)CC4)c3O2)cn1 (stereo partly drawn) [Compound 55, 2-methyl-5-[2-methyl-4-{1-[(3-{[(2S)-oxetan-2-yl]methyl}-6-[5-(trifluoromethyl)-4H-1,2,4-triazol-3-yl]-3H-imidazo[4,5-c]pyridin-2-yl)methyl]piperidin-4-yl}-2H-1,3-benzodioxol-2-yl]pyridine] | < 1 |
| C[C@]1(c2ccc(Cl)cc2F)Oc2cccc(C3CCN(Cc4nc5c(F)c(C(=O)O)ccc5n4C[C@@H]4CCO4)CC3)c2O1 [Compound 27, 2-((4-((S)-2-(4-chloro-2-fluorophenyl)-2-methylbenzo[d][1,3]dioxol-4-yl)piperidin-1-yl)methyl)-4-fluoro-1-(((S)-oxetan-2-yl)methyl)-1H-benzo[d]imidazole-5-carboxylic acid] | < 1 |
| Fc1ccc(COc2cccc(C3CCN(Cc4nc5cc(-c6nnc(C(F)(F)F)[nH]6)ncc5n4C[C@@H]4CCO4)CC3)n2)nc1OC(F)F [Compound 14, (S)-2-((4-(6-((6-(difluoromethoxy)-5-fluoropyridin-2-yl)methoxy)pyridin-2-yl)piperidin-1-yl)methyl)-3-(oxetan-2-ylmethyl)-6-(5-(trifluoromethyl)-4H-1,2,4-triazol-3-yl)-3H-imidazo[4,5-c]pyridine] | < 1 |
| FC(F)(F)Oc1cccc(COc2cccc(C3CCN(Cc4nc5cc(-c6nnc(C(F)(F)F)[nH]6)ncc5n4C[C@@H]4CCO4)CC3)n2)c1 [Compound 11, (S)-3-(oxetan-2-ylmethyl)-2-((4-(6-((3-(trifluoromethoxy)benzyl)oxy)pyridin-2-yl)piperidin-1-yl)methyl)-6-(5-(trifluoromethyl)-4H-1,2,4-triazol-3-yl)-3H-imidazo[4,5-c]pyridine] | < 1 |
| C[C@]1(c2ccc(Cl)cc2F)Oc2cccc(C3CCN(Cc4nc5cc(C(=O)NCC(F)(F)F)ncc5n4C[C@@H]4CCO4)CC3)c2O1 [Compound 25, 2-((4-((S)-2-(4-chloro-2-fluorophenyl)-2-methylbenzo[d][1,3]dioxol-4-yl)piperidin-1-yl)methyl)-3-(((S)-oxetan-2-yl)methyl)-N-(2,2,2-trifluoroethyl)-3H-imidazo[4,5-c]pyridine-6-carboxamide] | < 1 |
| O=C(O)c1cc2nc(CN3CC=C(c4cccc(OCc5ccc(Cl)cc5F)n4)CC3)n(C[C@@H]3CCO3)c2cn1 [Compound 29, (S)-2-((6-((4-chloro-2-fluorobenzyl)oxy)-3′,6′-dihydro-[2,4′-bipyridin]-1′(2′H)-yl)methyl)-3-(oxetan-2-ylmethyl)-3H-imidazo[4,5-c]pyridine-6-carboxylic acid] | < 1 |
| FC(F)Oc1cccc(COc2cccc(C3CCN(Cc4nc5cc(-c6nnc(C(F)(F)F)[nH]6)ncc5n4C[C@@H]4CCO4)CC3)n2)n1 [Compound 9, (S)-2-((4-(6-((6-(difluoromethoxy)pyridin-2-yl)methoxy)pyridin-2-yl)piperidin-1-yl)methyl)-3-(oxetan-2-ylmethyl)-6-(5-(trifluoromethyl)-4H-1,2,4-triazol-3-yl)-3H-imidazo[4,5-c]pyridine] | < 1 |
| Fc1cc(Cl)ccc1COc1cccc([C@@H]2CCN(Cc3nc4cc(-c5nnc(C(F)(F)F)[nH]5)ncc4n3C[C@@H]3CCO3)C[C@H]2F)n1 (single isomer, unassigned) [Compound 59] | < 1 |
| NC(=O)c1nnc(-c2cc3nc(CN4CC=C(c5ccc(F)c(OCc6ccc(Cl)cc6F)c5)CC4)n(C[C@@H]4CCO4)c3cn2)[nH]1 [Compound 32, (S)-5-(2-((4-(3-((4-chloro-2-fluorobenzyl)oxy)-4-fluorophenyl)-3,6-dihydropyridin-1(2H)-yl)methyl)-3-(oxetan-2-ylmethyl)-3H-imidazo[4,5-c]pyridin-6-yl)-4H-1,2,4-triazole-3-carboxamide] | < 1 |
| Cc1nnc(-c2cc(F)c3c(c2)nc(CN2CCC(c4cccc5c4O[C@@](C)(c4ccc(Cl)cn4)O5)CC2)n3C[C@@H]2CCO2)[nH]1 [Compound 42, 2-((4-((S)-2-(5-chloropyridin-2-yl)-2-methylbenzo[d][1,3]dioxol-4-yl)piperidin-1-yl)methyl)-7-fluoro-5-(5-methyl-4H-1,2,4-triazol-3-yl)-1-(((S)-oxetan-2-yl)methyl)-1H-benzo[d]imidazole] | < 1 |

Results, then the molecule that gave them:

| EC50 [nM] | Compound |
| --- | --- |
| < 1 | Fc1ccc(COc2cccc(C3CCN(Cc4nc5cc(-c6nnc(C(F)(F)F)[nH]6)ncc5n4C[C@@H]4CCO4)CC3)n2)c(F)c1 [Compound 1, 2-[(2,4-difluorophenyl)methoxy]-6-{1-[(3-{[(2S)-oxetan-2-yl]methyl}-6-[5-(trifluoromethyl)-4H-1,2,4-triazol-3-yl]-3H-imidazo[4,5-c]pyridin-2-yl)methyl]piperidin-4-yl}pyridine] |
| < 1 | Cc1ccc(COc2cccc(C3CCN(Cc4nc5cc(-c6nnc(C(F)(F)F)[nH]6)ncc5n4C[C@@H]4CCO4)CC3)n2)nn1 [Compound 21, 3-methyl-6-{[(6-{1-[(3-{[(2S)-oxetan-2-yl]methyl}-6-[5-(trifluoromethyl)-4H-1,2,4-triazol-3-yl]-3H-imidazo[4,5-c]pyridin-2-yl)methyl]piperidin-4-yl}pyridin-2-yl)oxy]methyl}pyridazine] |
| < 1 | O=c1[nH]c(-c2ccc3c(nc(CN4CCC(c5cccc(OCc6ccc(Cl)cc6F)n5)CC4)n3C[C@@H]3CCO3)c2F)no1 [Compound 35, (S)-3-(2-((4-(6-((4-chloro-2-fluorobenzyl)oxy)pyridin-2-yl)piperidin-1-yl)methyl)-4-fluoro-1-(oxetan-2-ylmethyl)-1H-benzo[d]imidazol-5-yl)-1,2,4-oxadiazol-5(4H)-one] |
| < 1 | N#Cc1nnc(-c2cc3nc(CN4CC=C(c5ccc(F)c(OCc6ccc(Cl)cc6F)c5)CC4)n(C[C@@H]4CCO4)c3cn2)[nH]1 [Compound 33, (S)-5-(2-((4-(3-((4-chloro-2-fluorobenzyl)oxy)-4-fluorophenyl)-3,6-dihydropyridin-1(2H)-yl)methyl)-3-(oxetan-2-ylmethyl)-3H-imidazo[4,5-c]pyridin-6-yl)-4H-1,2,4-triazole-3-carbonitrile] |
| < 1 | Cc1c(F)ccc(COc2cccc(C3CCN(Cc4nc5cc(-c6nnc(C(F)(F)F)[nH]6)ncc5n4C[C@@H]4CCO4)CC3)n2)c1F [Compound 5, 2-[(2,4-difluoro-3-methylphenyl)methoxy]-6-{1-[(3-{[(2S)-oxetan-2-yl]methyl}-6-[5-(trifluoromethyl)-4H-1,2,4-triazol-3-yl]-3H-imidazo[4,5-c]pyridin-2-yl)methyl]piperidin-4-yl}pyridine] |
| < 1 | COc1cc(Cl)ccc1COc1cccc(C2CCN(Cc3nc4cc(-c5nnc(C(F)(F)F)[nH]5)ncc4n3C[C@@H]3CCO3)CC2)n1 [Compound 2, (S)-2-((4-(6-((4-chloro-2-methoxybenzyl)oxy)pyridin-2-yl)piperidin-1-yl)methyl)-3-(oxetan-2-ylmethyl)-6-(5-(trifluoromethyl)-4H-1,2,4-triazol-3-yl)-3H-imidazo[4,5-c]pyridine] |
| < 1 | Fc1cc(Cl)ccc1COc1nc(C2CCN(Cc3nc4cc(-c5nnc(C(F)(F)F)[nH]5)nnc4n3C[C@@H]3CCO3)CC2)c(F)cc1F [Compound 50, 2-[(4-chloro-2-fluorophenyl)methoxy]-3,5-difluoro-6-{1-[(7-{[(2S)-oxetan-2-yl]methyl}-3-[5-(trifluoromethyl)-4H-1,2,4-triazol-3-yl]-7H-imidazo[4,5-c]pyridazin-6-yl)methyl]piperidin-4-yl}pyridine] |
| < 1 | FC(F)(F)c1nnc(-c2cc3nc(CN4CCC(c5cccc(OCc6ccc(Cl)c7c6OCO7)n5)CC4)n(C[C@@H]4CCO4)c3cn2)[nH]1 [Compound 16, (S)-2-((4-(6-((7-chlorobenzo[d][1,3]dioxol-4-yl)methoxy)pyridin-2-yl)piperidin-1-yl)methyl)-3-(oxetan-2-ylmethyl)-6-(5-(trifluoromethyl)-4H-1,2,4-triazol-3-yl)-3H-imidazo[4,5-c]pyridine] |
| < 1 | FC(F)Oc1ccc(COc2cccc(C3CCN(Cc4nc5cc(-c6nnc(C(F)(F)F)[nH]6)ncc5n4C[C@@H]4CCO4)CC3)n2)cn1 [Compound 7, 2-{[6-(difluoromethoxy)pyridin-3-yl]methoxy}-6-{1-[(3-{[(2S)-oxetan-2-yl]methyl}-6-[5-(trifluoromethyl)-4H-1,2,4-triazol-3-yl]-3H-imidazo[4,5-c]pyridin-2-yl)methyl]piperidin-4-yl}pyridine] |
| < 1 | [2H]C1([2H])Oc2cccc(COc3cccc(C4CCN(Cc5nc6cc(-c7nnc(C(F)(F)F)[nH]7)ncc6n5C[C@@H]5CCO5)CC4)n3)c2O1 [Compound 19, (S)-2-((4-(6-((benzo[d][1,3]dioxol-4-yl-2,2-d2)methoxy)pyridin-2-yl)piperidin-1-yl)methyl)-3-(oxetan-2-ylmethyl)-6-(5-(trifluoromethyl)-4H-1,2,4-triazol-3-yl)-3H-imidazo[4,5-c]pyridine] |
